# Test results reported in patent US10100058B2, “Fused heterocyclic compounds as CaM kinase inhibitors” (Gilead Sciences, Inc., priority 2016, dated 2018).
# Molecular target: recombinant CaMKIIδ (Homo sapiens (Human), UniProt Q13557)
# Experiment: CaMKIIδ biochemical assay (HTRF)
# Details: 10 pM CaMKIIδ, 110 nM calmodulin, 12 μM ATP, 1 hour; read-out: CAMKIID-HTRF-384V2 (IC50 - nM)
# Procedure: CaMKIIδ Biochemical Assay
# The biochemical activity of recombinant CaMKIIδ was measured by monitoring the phosphorylation of a target peptide using Homogenous Time Resolved Fluorescence (HTRF) technology from CisBio Bioassays.
row,IC50 [nM],SMILES
1,0.21,"CCN(CC)[C@@H](C)CNC(=O)c1cc(-c2cnn3ccc(-c4cccs4)nc23)nc(N2CC(C)(N(C)C)C2)c1 [Example 248, (S)—N-(2-(diethylamino)propyl)-2-(3-(dimethylamino)-3-methylazetidin-1-yl)-6-(5-(thiophen-2-yl)pyrazolo[1,5-a]pyrimidin-3-yl)isonicotinamide]"
2,58.5,"C[C@H](N)[C@@H]1CCCCN1C(=O)c1ccnc(-c2cnn3ccc(-c4ccccc4)nc23)c1 [Example 90, ((S)-2-((S)-1-aminoethyl)piperidin-1-yl)(2-(5-phenylpyrazolo[1,5-a]pyrimidin-3-yl)pyridin-4-yl)methanone]"
3,0.52,"CCN(CC)[C@@H](C)CNC(=O)c1cc(Cl)nc(-c2cnn3ccc(-c4cccs4)nc23)c1 [Example 103, (S)-2-chloro-N-(2-(diethylamino)propyl)-6-(5-(thiophen-2-yl)pyrazolo[1,5-a]pyrimidin-3-yl)isonicotinamide]"
4,5.62,"CCN(CC)[C@@H](C)CNC(=O)c1cc(-c2cnn3ccc(-c4cccs4)nc23)nc(C(F)(F)F)c1 [Example 107, (S)—N-(2-(diethylamino)propyl)-2-(5-(thiophen-2-yl)pyrazolo[1,5-a]pyrimidin-3-yl)-6-(trifluoromethyl)isonicotinamide]"
5,0.08,"CCN(CC)[C@@H](C)CNC(=O)c1cc(-c2cnn(C)c2)nc(-c2cnn3ccc(-c4cccs4)nc23)c1 [Example 331, (S)—N-(2-(diethylamino)propyl)-2-(1-methyl-1H-pyrazol-4-yl)-6-(5-(thiophen-2-yl)pyrazolo[1,5-a]pyrimidin-3-yl)isonicotinamide]"
6,0.13,"CCN(CC)[C@@H](C)CNC(=O)c1cc(NCc2ncc[nH]2)nc(-c2cnn3ccc(-c4cccs4)nc23)c1 [Example 237, (S)-2-(((1H-imidazol-2-yl)methyl)amino)-N-(2-(diethylamino)propyl)-6-(5-(thiophen-2-yl)pyrazolo[1,5-a]pyrimidin-3-yl)isonicotinamide]"
7,18,"CC(C)N[C@@H](C)CNC(=O)c1ccnc(-c2cnn3ccc(-c4cccs4)nc23)c1 [Example 32, (S)—N-(2-(isopropylamino)propyl)-2-(5-(thiophen-2-yl)pyrazolo[1,5-a]pyrimidin-3-yl)isonicotinamide]"
8,0.56,"CCN(CC)[C@@H](C)CNC(=O)c1cc(OCC2(C)COC2)nc(-c2cnn3ccc(-c4cccs4)nc23)c1 [Example 349, (S)—N-(2-(diethylamino)propyl)-2-((3-methyloxetan-3-yl)methoxy)-6-(5-(thiophen-2-yl)pyrazolo[1,5-a]pyrimidin-3-yl)isonicotinamide]"
9,0.85,"CCN(CC)[C@@H](C)CNC(=O)c1cc(-c2cnn3ccc(-c4cccs4)nc23)nc(N2CCC(O)C(F)(F)C2)c1 (stereo partly drawn) [Example 156, N—((S)-2-(diethylamino)propyl)-2-(3,3-difluoro-4-hydroxypiperidin-1-yl)-6-(5-(thiophen-2-yl)pyrazolo[1,5-a]pyrimidin-3-yl)isonicotinamide]"
10,0.14,"CCN(CC)[C@@H](C)CNC(=O)c1cc(-c2cnn3ccc(-c4cccs4)nc23)nc(N2C[C@H](O)[C@@H](O)C2)c1 [Example 243, N—((S)-2-(diethylamino)propyl)-2-((3S,4S)-3,4-dihydroxypyrrolidin-1-yl)-6-(5-(thiophen-2-yl)pyrazolo[1,5-a]pyrimidin-3-yl)isonicotinamide]"
11,0.14,"CCN(CC)[C@@H](C)CNC(=O)c1cc(NC[C@@H](C)O)nc(-c2cnn3ccc(-c4cccs4)nc23)c1 [Example 202, N—((S)-2-(diethylamino)propyl)-2-(((R)-2-hydroxypropyl)amino)-6-(5-(thiophen-2-yl)pyrazolo[1,5-a]pyrimidin-3-yl)isonicotinamide]"
12,7.36,"N[C@@H]1CCC[C@H]2CCCN(C(=O)c3ccnc(-c4cnn5ccc(-c6ccccc6)nc45)c3)[C@H]21 [Example 98, ((4aS,8R,8aR)-8-aminooctahydroquinolin-1(2H)-yl)(2-(5-phenylpyrazolo[1,5-a]pyrimidin-3-yl)pyridin-4-yl)methanone]"
13,0.23,"CCN(CC)[C@@H](C)CNC(=O)c1cc(-c2cnn3ccc(-c4cccs4)nc23)nc(N2CC[C@@H](C(=O)NC)C2)c1 [Example 311, N—((S)-2-(diethylamino)propyl)-2-((R)-3-(methylcarbamoyl)pyrrolidin-1-yl)-6-(5-(thiophen-2-yl)pyrazolo[1,5-a]pyrimidin-3-yl)isonicotinamide]"
14,0.99,"N[C@@H]1CCC[C@@H]2CCCN(C(=O)c3ccnc(-c4cnn5ccc(-c6cccs6)nc45)c3)[C@@H]21 [Example 86, ((4aR,8R,8aS)-8-aminooctahydroquinolin-1(2H)-yl)(2-(5-(thiophen-2-yl)pyrazolo[1,5-a]pyrimidin-3-yl)pyridin-4-yl)methanone]"
15,2.05,"CCN(CC)[C@@H](C)CNC(=O)c1cc(-c2cnn3ccc(-c4cccs4)nc23)nc(N2CCC[C@@H]2C(F)(F)F)c1 [Example 251, N—((S)-2-(diethylamino)propyl)-2-(5-(thiophen-2-yl)pyrazolo[1,5-a]pyrimidin-3-yl)-6-((R)-2-(trifluoromethyl)pyrrolidin-1-yl)isonicotinamide]"
16,0.32,"CCN(CC)[C@@H](C)CNC(=O)c1cc(-c2cnn3ccc(-c4cccs4)nc23)nc(N2CCn3ccnc3C2)c1 [Example 155, (S)—N-(2-(diethylamino)propyl)-2-(5,6-dihydroimidazo[1,2-a]pyrazin-7(8H)-yl)-6-(5-(thiophen-2-yl)pyrazolo[1,5-a]pyrimidin-3-yl)isonicotinamide]"
17,8.08,"NC[C@H]1CCCCN1C(=O)c1cc(-c2cnn3ccc(-c4ccccc4)nc23)nc(C2CC2)c1 [Example 117, (R)-(2-(aminomethyl)piperidin-1-yl)(2-cyclopropyl-6-(5-phenylpyrazolo[1,5-a]pyrimidin-3-yl)pyridin-4-yl)methanone]"
18,56.1,"Cc1cc(C(=O)N2CCC[C@@H]2CN)cc(-c2cnn3ccc(-c4ccccc4)nc23)n1 [Example 131, (R)-(2-(aminomethyl)pyrrolidin-1-yl)(2-methyl-6-(5-phenylpyrazolo[1,5-a]pyrimidin-3-yl)pyridin-4-yl)methanone]"
19,3.66,"CCN(CC)[C@@H](C)CNC(=O)c1cc(N[C@H](C)C(=O)NC)nc(-c2cnn3ccc(-c4cccs4)nc23)c1 [Example 239, N—((S)-2-(diethylamino)propyl)-2-(((R)-1-(methylamino)-1-oxopropan-2-yl)amino)-6-(5-(thiophen-2-yl)pyrazolo[1,5-a]pyrimidin-3-yl)isonicotinamide]"
20,30.1,"CCN(CC)[C@H](CNC(=O)c1ccnc(-c2cnn3ccc(-c4ccccc4)nc23)c1)COc1ncccn1 [Example 70, (R)—N-(2-(diethylamino)-3-(pyrimidin-2-yloxy)propyl)-2-(5-phenylpyrazolo[1,5-a]pyrimidin-3-yl)isonicotinamide]"
21,27.8,"O=C(c1ccnc(-c2cnn3ccc(-c4ccccc4)nc23)c1)N1CCCC[C@@H]1[C@@H]1CCCN1 [Example 93, (2-(5-phenylpyrazolo[1,5-a]pyrimidin-3-yl)pyridin-4-yl)((R)-2-((S)-pyrrolidin-2-yl)piperidin-1-yl)methanone]"
